PMC4742222, “Discovery of Novel Hepatitis C Virus NS5B Polymerase Inhibitors by Combining Random Forest, Multiple e-Pharmacophore Modeling and Docking” (PLoS ONE, 2016)
Where two headings read alike, the source gives them in different places.

What was measured:
HCV (JFH-1, genotype 2a) [1] = assay: microbe, parasite or virus in culture; assay type: cell-based, Hepatitis C virus; conditions: for EC50: luminescence reduced by 50% in Huh7.5.1 cells, mean of three experiments, read-out: Anti-HCV activity virus assay JFH1 EC50; for SI (selective index): ratio of CC50 to EC50
Excerpt: The HCV virus assay was constructed by using the method developed as previously described, albeit with a slight modification. Briefly, the plasmid of pRluc-JFH-1 was constructed as following. Based on the plasmid of pJFH-1, as a gift from Apath,L.L.C., a humanized Renilla luciferase reporter gene was introduced into the C-terminus of NS5A in the JFH-1 genome. The plasmid phRluc-JFH-1 was made via digestion with the XbaI restriction enzyme and used as a template for RNA transcription. The virus transcripts were prepared in vitro by using the Ambion MEGAscript Kits, and then 10 μg of RNA was mixed with […] of Huh7.5.1, which was gifted by Jin Zhong (Institute Pasteur of Shanghai, Chinese Academy of Science), at a concentration of 1×10^7 cells/ml. After electroporation, the Huh7.5.1 cells containing virus transcripts were seeded in a 10-cm dish. After the cells were cultured for 4 days, the supernatant was collected and filtered to obtain the stock solution of the hRluc-JFH-1 virus. To obtain the virus titer, the virus stocks were diluted at a gradient of 1:10, and the Huh7.5.1 cells were incubated for 48h at 37°C. Then, the cells were harvested, and the luminescence was detected via the manufacturer’s protocol of the Renilla-Glo™ Luciferase Assay System (Promega).
Huh7.5.1 cells were seeded in 96-well plates at a density of 2 ×10^4 cells per well at 37°C overnight. All of the synthetic compounds were diluted with DMSO to 10 mM of stock solution. The initial concentration of compounds was 20 μM and then diluted at a gradient of 1:4 to concentrations ranging from 20 μM to 0.02 μM, containing 0.5% DMSO. For the HCVcc system, serial diluted compounds were mixed with a certain titer of HCVcc-hRluc-JFH1 virus, and the final concentration of HCVcc-hRluc-JFH1 virus titer was diluted to the numbers of relative luminescence units (RLU) ranging from 20,000 to 50,000 RLU and then added to the Huh7.5.1 cells. Then, the cells were cultured for 2 days at 37°Cand harvested. The luminescence was detected via the manufacturer’s protocol of the Renilla-Glo™ Luciferase Assay System. EC50 is the concentration of the compound at which the HCV luminescence level in the Huh7.5.1 cells is reduced by 50%. The values of EC50 were plotted by the GraphPad Prism 5 software.

NS5B protein = NS5B protein (Hepatitis C virus genotype 1b, UniProt P26663); assay: biochemical; assay type: binding; conditions: for Kd: dissociation equilibrium constant, NS5B immobilized on CM5 chip, read-out: SPR on NS5B KD
Chain of NS5B protein (P26663 2420-3010): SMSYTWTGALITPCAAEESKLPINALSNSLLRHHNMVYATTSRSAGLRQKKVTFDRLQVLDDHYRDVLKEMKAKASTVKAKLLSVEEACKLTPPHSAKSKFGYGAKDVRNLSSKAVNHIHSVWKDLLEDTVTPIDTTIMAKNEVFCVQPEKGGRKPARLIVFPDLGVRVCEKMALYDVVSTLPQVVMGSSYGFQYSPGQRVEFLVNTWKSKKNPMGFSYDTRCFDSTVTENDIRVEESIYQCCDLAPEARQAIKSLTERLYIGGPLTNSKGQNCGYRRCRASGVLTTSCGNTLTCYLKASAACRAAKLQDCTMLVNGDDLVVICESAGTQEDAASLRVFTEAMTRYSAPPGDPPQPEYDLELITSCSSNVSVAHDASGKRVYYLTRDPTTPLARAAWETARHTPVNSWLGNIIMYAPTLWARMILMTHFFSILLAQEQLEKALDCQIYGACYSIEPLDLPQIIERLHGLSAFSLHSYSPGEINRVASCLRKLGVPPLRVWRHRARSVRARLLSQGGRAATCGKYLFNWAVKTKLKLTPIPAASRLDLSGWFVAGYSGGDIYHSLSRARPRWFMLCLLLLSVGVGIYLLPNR
Method: The SPR experiments were performed using a Biacore T200 optical biosensor (Biacore Life Sciences, GE Healthcare). The NS5B protein at 50 μg/ml prepared in buffer of 10 mM sodium acetate (pH 5.5) was immobilized by standard amine coupling to a CM5 biosensor chip. The compounds were injected for 60 s at a flow rate of 30 μL/min using in concentration series between 1 and 250 μM in running buffer (1 × PBS with 5% DMSO). The dissociation was monitored for 300 s. Raw data collected on an SPR biosensor were further processed to eliminate any artifacts such as nonspecific binding and discrepancies in buffer composition. All data processing and analysis was performed using the Biacore T200 Evaluation Software.

[2] = Cell proliferation assay (WST-1); assay type: cell-based; conditions: human
Method: (§1) Huh7.5.1 cells were seeded in 96-well plates at a density of 2 × 10^4 cells per well overnight. Cells were incubated with serial diluted compounds for 48 h. The viability of Huh7.5.1 cells was determined in 96-well tissue culture plates using the cell proliferation reagent WST-1 (Roche), and absorbance (OD450 / reference OD630) was measured to detect the cytotoxicity of compounds according to the manufacturer’s protocol for the Cell Proliferation Reagent WST-1. CC50 is the concentration of the compound at which the cell growth was inhibited by 50%. The values of CC50 were plotted by the GraphPad Prism 5 software.

HCV NS5B protein = biological target: T1, HCV NS5B protein (Hepatitis C virus genotype 1b, UniProt P26663); assay: biochemical; conditions: for IC50: in vitro enzyme activity, 2'-O-Me-CTP positive control, read-out: NS5B inhibition assay IC50
T1 construct: Purified HCV NS5B protein and HCV (-) 3’ T RNA template were obtained as described previously
T1 sequence (P26663 2420-3010): as above
Method: The inhibitory effects of the tested reagents on in vitro NS5B activity were determined by NS5B-catalyzed RNA synthesis assay as described previously. Purified HCV NS5B protein and HCV (-) 3’ T RNA template were obtained as described previously. The tested reagents were added at a variety of concentrations in 50 μl reaction mixture consisting of 20 mM HEPES (pH 8.0), 1.5 mM MnCl2, 100 mM ammonium acetate, 1 mM DTT, 500 μM GTP, 250 μM each of CTP, ATP and UTP, 40U of RNasin (Biostar, Canada), 2 μg/ml HCV (-) 3’ TRNA template and 300 ng purified NS5B protein. After 2 h at 30°C, the reaction was stopped by 100 mM EDTA and RNA was purified using the RNaid Kit (Qbiogene). To determine NS5B-catalyzed RNA synthesis, real-time RT-PCR was performed. cDNA was synthesized using AMV-reverse transcriptase (TAKARA, Japan) and the primer targeted to NS5B-catalyzed RNA product (5’-[…]-3’) and then digested with RNAase. PCR was carried out using RNA product–specific primers (forward, […], reverse 5’-[…]-3’, probe, 5’-[…]-3’) and TaqMan RT-PCR Kit according to the instruction. 50% inhibitory concentrations (IC50) were calculated using Statistical SPSS program version 11.5 by probit analysis of regression.

HCV (JFH-1, genotype 2a) [3] = assay type: cell-based, Hepatitis C virus; conditions: at a concentration of 12.5 μM
Huh7.5.1 cells = assay: Cell proliferation assay (WST-1); assay type: cell-based
Method: as §1

NS5B polymerase = conditions: S2 Table, validation set of the RF model; ref DOI in column Reference (DOI); cited from earlier work
[4] = Huh7.5.1 cells, 48 h, WST-1, mean of three experiments, read-out: CC50

| Compound | EC50 (HCV (JFH-1, genotype 2a) [1]; Hepatitis C virus, Huh-7.5.1) | Kd (NS5B protein) | CC50 at 48 h [2, 4] | IC50 (HCV NS5B protein) | SI (selective index) (HCV (JFH-1, genotype 2a) [1]) | other results |
| --- | --- | --- | --- | --- | --- | --- |
| COc1cc(C(=O)NNS(=O)(=O)c2ccccc2)cc(OCc2ccccc2)c1OC [N1] | > 12.5 µM | 62.9 µM | > 100 µM | 3.63 µM |  |  |
| O=C(CSc1nc2ccccc2o1)Nc1cc(C(F)(F)F)cc(C(F)(F)F)c1 [N2] | 1.61 µM | 4.67 µM | 51.3 µM | 3 µM | 32.1 | HCV virus titers suppressed (HCV (JFH-1, genotype 2a) [3]): ~99%; cellular cytotoxicity (Huh7.5.1 cells; at a concentration of 12.5 μM): no cellular cytotoxicity |
| Cc1ccc(O)c(NC(=O)COc2ccc3c(=O)c(-c4ccccc4)c(C)oc3c2)c1 [N4] | > 12.5 µM | 123 µM | > 100 µM | 2.01 µM |  |  |
| Cc1ccc(N(Cc2cc3cccc(C)c3nc2O)S(=O)(=O)c2ccccc2)c(C)c1 [N5, N-(2,4-dimethylphenyl)-N-((8-methyl-2-oxo-1,2-dihydroquinolin-3-yl)methyl)benzenesulfonamide] | 10.9 µM |  | > 100 µM | 2.2 µM |  |  |
| CC(C)OC(=O)[C@H](C)N[P@](=O)(OC[C@H]1O[C@@H](n2ccc(=O)[nH]c2=O)[C@](C)(F)[C@@H]1O)Oc1ccccc1 [PSI-7977, sofosbuvir, reference compound] | 0.49 µM |  | > 20 µM |  | >40.82 |  |
| Nc1cc(Cn2c(C(=O)NS(=O)(=O)c3ccc(O)cc3)c(-c3ccc[nH]c3=O)c3cc(Cl)ccc32)ccn1 [compound 137] |  |  |  |  |  | IC50 (NS5B polymerase): > 50 µM |
| CCC[C@H](NC(=O)[C@@H]1[C@H]2CCC[C@H]2CN1C(=O)[C@@H](NC(=O)[C@@H](NC(=O)c1cnccn1)C1CCCCC1)C(C)(C)C)C(=O)C(=O)NC1CC1 [telaprevir, reference compound] | 0.02 µM |  |  |  | >500 | CC50 at 48 h [2]: > 10 µM |
| N-(8-fluoro-4-oxo-1,4-dihydroquinoline-3-carbonyl)-1,2-dimethyl-1H-imidazole-4-sulfonohydrazide [N3] |  | 86.1 µM |  | 23.8 µM |  | EC50 (HCV (JFH-1, genotype 2a) [1]): 21.3 µM; pKD (NS5B protein; from SPR KD): 4.06; CC50 (Huh7.5.1 cells): > 100 µM; pIC50 (HCV NS5B protein; from NS5B inhibition IC50): 4.62 |
